This is an account of results in patent publication US20230173074A1, “BIOCOMPATIBLE MATERIAL AND METHODS FOR MAKING AND USING THE SAME” (PLERYON THERAPEUTICS (SHENZHEN) LIMITED, priority 2020, published 2023).

{3'dT} = capped with 3'-dT; {C6} = six-carbon (C6) cap; m = 2'-O-methyl; r = 2'-OH (RNA); f = 2'-fluoro

The nature of this data set: Release of aptamer from hydrogel (UV 260 nm). The note with it: PBS, 37° C. An excerpt:
Hydrogel was formed similar to Example 5. An aptamer similar to Macugen of the following sequence of nucleotides and functional groups: CfGmGmAAUfCfAmGmUfGmAmAmUfGmCfUfUfAmUfAmCfAmUfCfCfGm3′(SEQ ID NO:1), with 5′ end caped with 6 carbon (C6) and 3′ end caped with a 3′-dT-S′ and Cy3 fluorescent dye, was used as an aptamer example. Gm or Am and Cf or Uf represent 2-methoxy and 2-fluoro variants of their respective purines and pyrimidines, and C, A, U and G code for cytidylic, adenylic, uridylic and guanylic acids. Hydrogels were formed similar to Example 5, except that the solution before gel formation was added to the API in powder form. The gel was incubated at 37° C. for 2 days before release experiment. For the release experiment, a small portion of gel (between […]) were transferred by a 3 mL disposable plastic pipettes into a 10 ml glass vial at ambient temperature, and the mass was measured for the final release calculation. The glass vial was slowly filled up with 5 ml of PBS solutions to minimize the disturbing of gel. The release was performed at 37° C. in triplicate. At each predetermined time point, 0.5 h, 1 h, 2 h, and 4 h in this case, the sample was gently shake for 10 s and sit at ambient temperature for 10 min before 1000 μl of releasing buffer were taken for UV quantification at 260 nm. The experiments were performed in triplicate.

For “aptamer: modified RNA aptamer similar to Macugen (SEQ ID NO:1), 5′ C6 cap, 3′-dT and Cy3 dye (CGGAAUCAGUGAAUGCUUAUACAUCCG; sugars from the 5' end fmmrrffmmfmmmfmfffmfmfmfffm, 5' {C6}, 3' {3'dT}, backbone not given here; Cy3 fluorescent dye attached, further chemistry not fully specified)”, the “duration of release from hydrogel” value is, setting by setting: (hydrogel Ap1 (FIG. 21)) “about 4 hours”; (hydrogel Ap2 (FIG. 22)) “about 4 hours”.
